Measurements taken from paper PMC5358098 (ACS chemical neuroscience, 2016).
Several values for one entry are separate records, joined by “and”; a condition that tells them apart may be missing. Equal values may be shown once. Read-outs that look alike come from different tables or passages of the source.

Columns and labels:
CB1R [1] = molecular target: T1, CB1R (Homo sapiens, UniProt P21554); experiment: cell-based; format: cell-based
CB1R [2] = molecular target: T2, CB1R (Mus musculus, UniProt P47746); experiment: Operational model bias analysis, STHdh^Q7/Q7 cells; settings: for BF β-arrestin1/pERK1/2 / BF β-arrestin1/pPLCβ3: STHdh^Q7/Q7
CB1R [3] = molecular target: T2, CB1R; experiment: Operational model bias analysis, Neuro2a cells; format: cell-based; settings: for ΔΔlog R β-arrestin1/pPLCβ3: reference 2-AG + GAT100
CB1R [4] = format: cell-based
CB1R [5] = settings: cited from earlier work
CB1R [6] = test system: CB1R
CB1R [7] = molecular target: T1, CB1R; experiment: cell-based; format: cell-based; remark: listed apart in the source
CB1R [8] = molecular target: T1, CB1R; experiment: cell-based
CB1R [9] = molecular target: T2, CB1R; format: cell-based
CB1R [10] = molecular target: T1, CB1R; experiment: [3H]SR141716A equilibrium binding, hCB1R CHO cell membranes
CB1R [11] = molecular target: T1, CB1R; format: cell-based; settings: HEK293A, 30 min
CB1R [12] = molecular target: T1, CB1R; format: cell-based; settings: Neuro2a, 30 min
CB1R [13] = molecular target: T1, CB1R; format: cell-based; settings: HEK293A, 10 min
CB1R [14] = molecular target: T2, CB1R
hCB1R = experiment: Operational model bias analysis, HEK293A cells; format: cell-based, human; settings: for ΔΔlog R β-arrestin1/cAMP / ΔΔlog R β-arrestin1/pPLCβ3: reference 2-AG + GAT100
CB1R [15] = molecular target: T2, CB1R; format: cell-based; settings: Neuro2a, 10 min
CB1R [16] = format: cell-based; remark: listed apart in the source
CB1R [17] = molecular target: T2, CB1R; format: cell-based; remark: listed apart in the source
CB1R [18] = molecular target: T2, CB1R; experiment: cell-based; settings: IC50, PLCβ3 phosphorylation, CP55,940
[19] = 500 nM 2-AG + 1 nM-10 μM allosteric modulator
[20] = 500 nM AEA + 1 nM-10 μM allosteric modulator
[21] = 500 nM CP55,940 + 1 nM-10 μM allosteric modulator
[22] = HEK293A, 500 nM 2-AG + 1 nM-10 μM allosteric modulator
[23] = HEK293A, 500 nM AEA + 1 nM-10 μM allosteric modulator
[24] = HEK293A, 500 nM CP55,940 + 1 nM-10 μM allosteric modulator

T1 sequence (P21554 whole entry): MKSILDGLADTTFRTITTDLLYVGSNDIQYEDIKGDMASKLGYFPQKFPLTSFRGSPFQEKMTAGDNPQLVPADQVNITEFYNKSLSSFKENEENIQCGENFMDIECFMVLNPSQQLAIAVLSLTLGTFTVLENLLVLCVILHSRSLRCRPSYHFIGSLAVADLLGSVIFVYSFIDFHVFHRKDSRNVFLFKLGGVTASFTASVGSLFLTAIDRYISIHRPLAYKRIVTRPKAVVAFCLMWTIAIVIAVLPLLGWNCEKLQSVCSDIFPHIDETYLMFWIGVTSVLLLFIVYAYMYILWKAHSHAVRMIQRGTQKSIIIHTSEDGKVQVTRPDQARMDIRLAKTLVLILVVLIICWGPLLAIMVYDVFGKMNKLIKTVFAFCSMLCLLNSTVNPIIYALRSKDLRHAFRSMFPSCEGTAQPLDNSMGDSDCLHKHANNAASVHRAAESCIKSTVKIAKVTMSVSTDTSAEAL
T2 sequence (P47746 whole entry): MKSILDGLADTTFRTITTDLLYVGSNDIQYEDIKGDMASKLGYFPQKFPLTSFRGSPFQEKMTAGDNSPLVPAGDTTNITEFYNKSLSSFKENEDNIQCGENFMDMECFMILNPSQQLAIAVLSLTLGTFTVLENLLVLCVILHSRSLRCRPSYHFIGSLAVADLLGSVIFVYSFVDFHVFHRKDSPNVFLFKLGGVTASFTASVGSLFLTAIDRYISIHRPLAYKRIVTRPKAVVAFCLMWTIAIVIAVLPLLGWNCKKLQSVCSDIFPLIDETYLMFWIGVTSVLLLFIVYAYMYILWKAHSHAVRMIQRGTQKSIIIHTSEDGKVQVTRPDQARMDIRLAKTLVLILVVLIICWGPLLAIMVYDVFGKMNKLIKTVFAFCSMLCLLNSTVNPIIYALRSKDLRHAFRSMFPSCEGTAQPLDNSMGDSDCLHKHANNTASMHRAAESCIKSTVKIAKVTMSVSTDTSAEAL

CCc1c(C(=O)NCCc2ccc(N3CCCCC3)cc2)[nH]c2ccc(Cl)cc12 [Org27569, 5-chloro-3-ethyl-N-(4-(piperidin-1-yl)phenethyl)-1H-indole-2-carboxamide]
Emax pPLCβ3/Total PLCβ3, 2-AG (CB1R [1]; HEK293A, 1 nM-10 μM 2-AG + 1 μM NAM, 10 min): 0.52 ± 0.02 | Emax pPLCβ3/Total PLCβ3, AEA (CB1R [1]; HEK293A, 1 nM-10 μM AEA + 1 μM NAM, 10 min): 0.49 ± 0.02 | Emax pPLCβ3/Total PLCβ3, CP55,940 (CB1R [1]; HEK293A, 1 nM-10 μM CP55,940 + 1 μM NAM, 10 min): 0.60 ± 0.03 | IC50 (CB1R [1]; IC50, PLCβ3 phosphorylation, CP55,940): 151 nM | BF β-arrestin1/pERK1/2 (CB1R [2]; [19]): 0.5 | BF β-arrestin1/pPLCβ3 (CB1R [2]; [19]): 0.3 | BF β-arrestin1/pERK1/2 (CB1R [2]; [20]): 1.3 | BF β-arrestin1/pPLCβ3 (CB1R [2]; [20]): 0.2 | BF β-arrestin1/pERK1/2 (CB1R [2]; [21]): 0.3 | BF β-arrestin1/pPLCβ3 (CB1R [2]; [21]): 0.8 | BF β-arrestin1/pERK1/2 (CB1R [3]; [19]): 3.2 | BF β-arrestin1/pPLCβ3 (CB1R [3]; [19]): 0.6 | ΔΔlog R β-arrestin1/pPLCβ3 (CB1R [3]; [19]): –0.2 ± 0.2 | BF β-arrestin1/pERK1/2 (CB1R [3]; [20]): 1.6 | BF β-arrestin1/pPLCβ3 (CB1R [3]; [20]): 4.0 | ΔΔlog R β-arrestin1/pPLCβ3 (CB1R [3]; [20]): 0.6 ± 0.2 | BF β-arrestin1/pERK1/2 (CB1R [3]; [21]): 3.2 | BF β-arrestin1/pPLCβ3 (CB1R [3]; [21]): 4.0 | ΔΔlog R β-arrestin1/pPLCβ3 (CB1R [3]; [21]): 0.6 ± 0.4 | Emax, PLCβ3 (pathway ligand bias summary) (CB1R [4]; mean of data for the pathway (Table 2), all cells and orthosteric ligands): 0.55 ± 0.01 | effect on CP55,940 equilibrium binding by CB1R (CB1R [5]): increase CP55,940 equilibrium binding | Emax, 2-AG (probe dependence summary) (CB1R [6]; mean of data for 2-AG (Tables 1-4)): 0.49 ± 0.02 | Emax, AEA (probe dependence summary) (CB1R [6]; mean of data for AEA (Tables 1-4)): 0.45 ± 0.03 | Emax, CP55,940 (probe dependence summary) (CB1R [6]; mean of data for CP55,940 (Tables 1-4)): 0.50 ± 0.04 | Emax, HEK293A (cell dependence summary) (CB1R [6]; mean of data for HEK293A (Tables 1-3)): 0.49 ± 0.02 | Emax, Neuro2a (cell dependence summary) (CB1R [6]; mean of data for Neuro2a (Tables 1-3)): 0.50 ± 0.02 | Emax, STHdh^Q7/Q7 (cell dependence summary) (CB1R [6]; mean of data for STHdh^Q7/Q7 (Tables 1-3)): 0.51 ± 0.02 | Emax, cAMP (pathway ligand bias summary) (CB1R [7]): 0.31 ± 0.04 ^† | effect on cAMP levels in the absence of orthosteric agonists (inverse agonism) (CB1R [7]; HEK-CRE, 10 μM forskolin + 1 nM to 10 μM compound alone, 4 h): increased cAMP levels significantly | IC50 (CB1R [7]; IC50, cAMP, CP55,940): 969 nM | Emax (CB1R [7]; read-out: Emax (% cAMP inhibition), CP55,940): 25.7 ± 1.64% | IC50 (CB1R [8]): 236 nM | Emax, β-arrestin1 (pathway ligand bias summary) (CB1R [8]; mean of data for the pathway (Table 1), all cells and orthosteric ligands): 0.50 ± 0.02 | Emax pERK1/2/Total ERK1/2, 2-AG (CB1R [9]; Neuro2a, 1 nM-10 μM 2-AG + 1 μM NAM, 10 min): 0.48 ± 0.03 | Emax pERK1/2/Total ERK1/2, AEA (CB1R [9]; Neuro2a, 1 nM-10 μM AEA + 1 μM NAM, 10 min): 0.44 ± 0.02 | Emax pERK1/2/Total ERK1/2, CP55,940 (CB1R [9]; Neuro2a, 1 nM-10 μM CP55,940 + 1 μM NAM, 10 min): 0.43 ± 0.02 | EC50 (CB1R [10]): 2520 nM | Emax (CB1R [10]; read-out: Emax, [3H]SR141716A binding): -17.6% | Emax (BRETEff), 2-AG (CB1R [11]; 1 nM-10 μM 2-AG + 1 μM NAM): 0.49 ± 0.03 | Emax (BRETEff), AEA (CB1R [11]; 1 nM-10 μM AEA + 1 μM NAM): 0.49 ± 0.02 | Emax (BRETEff), CP55,940 (CB1R [11]; 1 nM-10 μM CP55,940 + 1 μM NAM): 0.58 ± 0.03 | Emax (BRETEff), 2-AG (CB1R [12]; 1 nM-10 μM 2-AG + 1 μM NAM): 0.47 ± 0.03 | Emax (BRETEff), AEA (CB1R [12]; 1 nM-10 μM AEA + 1 μM NAM): 0.44 ± 0.02 | Emax (BRETEff), CP55,940 (CB1R [12]; 1 nM-10 μM CP55,940 + 1 μM NAM): 0.60 ± 0.05 | Emax pERK1/2/Total ERK1/2, 2-AG (CB1R [13]; 1 nM-10 μM 2-AG + 1 μM NAM): 0.46 ± 0.02 | Emax pERK1/2/Total ERK1/2, AEA (CB1R [13]; 1 nM-10 μM AEA + 1 μM NAM): 0.42 ± 0.02 | Emax pERK1/2/Total ERK1/2, CP55,940 (CB1R [13]; 1 nM-10 μM CP55,940 + 1 μM NAM): 0.40 ± 0.01 | effect on CP55,940-induced CB1R internalization (fraction of CB1R at the plasma membrane) (CB1R [14]; STHdh^Q7/Q7, 1 μM + 500 nM CP55,940): reversed this effect | BF β-arrestin1/cAMP (hCB1R; [22]): 0.2 | BF β-arrestin1/pERK1/2 (hCB1R; [22]): 0.1 | BF β-arrestin1/pPLCβ3 (hCB1R; [22]): 0.1 | ΔΔlog R β-arrestin1/cAMP (hCB1R; [22]): –0.6 ± 0.8 | ΔΔlog R β-arrestin1/pPLCβ3 (hCB1R; [22]): –1.0 ± 0.9 | BF β-arrestin1/cAMP (hCB1R; [23]): 0.1 | BF β-arrestin1/pERK1/2 (hCB1R; [23]): 15.8 | BF β-arrestin1/pPLCβ3 (hCB1R; [23]): 0.03 | ΔΔlog R β-arrestin1/cAMP (hCB1R; [23]): –1.2 ± 0.6 | ΔΔlog R β-arrestin1/pPLCβ3 (hCB1R; [23]): –1.6 ± 0.6 | BF β-arrestin1/cAMP (hCB1R; [24]): 1.0 | BF β-arrestin1/pERK1/2 (hCB1R; [24]): 4.0 | BF β-arrestin1/pPLCβ3 (hCB1R; [24]): 0.5 | ΔΔlog R β-arrestin1/cAMP (hCB1R; [24]): 0.0 ± 0.6 | ΔΔlog R β-arrestin1/pPLCβ3 (hCB1R; [24]): –0.3 ± 0.1 | Emax pPLCβ3/Total PLCβ3, 2-AG (CB1R [15]; 1 nM-10 μM 2-AG + 1 μM NAM): 0.53 ± 0.02 | Emax pPLCβ3/Total PLCβ3, AEA (CB1R [15]; 1 nM-10 μM AEA + 1 μM NAM): 0.52 ± 0.02 ^†† | Emax pPLCβ3/Total PLCβ3, CP55,940 (CB1R [15]; 1 nM-10 μM CP55,940 + 1 μM NAM): 0.58 ± 0.02 ^†† | Emax, ERK (pathway ligand bias summary) (CB1R [16]; mean of data for the pathway (Table 3), all cells and orthosteric ligands): 0.45 ± 0.01
